{"source": "patent US20050203065A1", "about": "“Method of treating ischemia reperfusion injury using adenosine receptor antagonists” (priority 2002, published 2005)", "key": {"[1]": {"biological_target": "T1, human A2B adenosine receptors (Homo sapiens, UniProt P29275)", "T1 sequence (P29275 1-332)": "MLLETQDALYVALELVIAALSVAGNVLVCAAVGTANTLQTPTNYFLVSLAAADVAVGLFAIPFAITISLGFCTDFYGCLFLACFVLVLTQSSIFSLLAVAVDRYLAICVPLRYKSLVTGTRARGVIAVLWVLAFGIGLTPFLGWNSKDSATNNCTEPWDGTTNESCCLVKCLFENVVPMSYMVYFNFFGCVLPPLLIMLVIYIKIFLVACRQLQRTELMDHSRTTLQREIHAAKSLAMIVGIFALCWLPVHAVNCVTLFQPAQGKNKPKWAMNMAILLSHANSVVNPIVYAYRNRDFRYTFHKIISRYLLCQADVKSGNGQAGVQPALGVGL", "experiment": "FLIPR calcium functional assay, human A2b receptor in HEK-293 cells (5 μM NECA)", "assay_type": "cell-based", "parameters": "expressed in transfected cells; host or cells: HEK-293", "conditions": "HEK293 cells, null method", "quoted_text": "Cells were seeded into 96-well tissue culture plates with black walls and clear bottoms, and cultured to an 80-0.90% confluent monolayer. Without removing the media, an equal volume of dye (from calcium assay kit purchased from Molecular Devices) was added. Cell plates were incubated for 1 hour at 37° C. and were then transferred to the-FLIPR unit (Molecular Devices).\nFor assay of recombinant human and rat A2b adenosine receptors, HEK-293 cells were incubated with increasing doses of agonist (5′N-ethylcarboxamidoadenosine, NECA) to determine the concentration of agonst that produced 50% of a maximum response.\nThe FLIPR integrates an argon laser excitation source, a 96-well pipettor, and a detection system utilizing a CCD (Charged Coupled Device) imaging camera. […] Fluorescence data were collected at 0.1-sec intervals before and after simultaneous rapid addition of compounds to the 96-well plate. Results were read as relative fluorescence units (RFU).\nIn FLIPR functional assays, agonist concentration-response curves were fitted to a logistic equation by use of the nonlinear regression program in Prizm GraphPad. […] A Schild analysis was performed to estimate the potency of the compounds as antagonists (pA2). […]"}, "[2]": {"biological_target": "T1, human A2B adenosine receptors", "experiment": "Radioligand competitive binding, human A2b receptor", "parameters": "expressed in transfected cells; host or cells: HEK-293", "conditions": "HEK 293 membranes", "procedure": "Binding assays were terminated by filtration.\nMembranes (40-70 μg membrane protein), radioligands, and varying concentrations of competing ligands were incubated in triplicate in 0.1 ml buffer HE plus 2 units/mL adenosine deaminase for 2.5 hours at 21° C. The radioligands used for competitive binding assays were: [^3H]-8-cyclopentyl-1,3-dipropyxanthine ([^3H]-DPCPX) (NEN, Boston, Mass.) for A1 and A2b adenosine receptors, [^3H]-4-(2-[7-amino-2-(furyl)(1,2,4)triazole(2,3-a)(1,3,5)triazin-5-ylaminoethyly)phenol ([^3H] ZM241385) for A2a adenosine receptors (Tocris, Bristol, UK), and [^125Iodine]-labeled N6-(4-aminobenzyl)-9-(5-(methylcarbonyl)-β-D-ribofuranosyl) adenine ([^125I]-AB-MECA) or [^3H]-R-N^6-phenylisopropyladenosine (H^3R]-R-PIA) for A3 adenosine receptors (both from NEN, Boston, Mass.). Nonspecific binding was measured in the presence of 10 μM 5′N ethylcarboxamidoadenosine (NECA, from RBI-Sigma, Natick, Mass.) for A1 and A2b receptors, or 10 μM xanthine amino congener (XAC, from RBI-Sigma, Natick, Mass.) for A2a receptors. Binding assays were terminated by filtration over Whatman GF/C glass fiber filters using a BRANDEL cell harvester (Gaithersburg, Md.)."}, "[3]": {"test_system": "open-chest, barbital-anesthetized dogs", "experiment": "Protocol I (pretreatment): 60 minutes of coronary artery occlusion and 3 hours of reperfusion in dogs", "quoted_text": "The studies were performed in open-chest, barbital-anesthetized dogs instrumented to measure heart rate, blood pressure, left ventricular pressure, and regional myocardial blood flow (radioactive microspheres). A mechanical occluder was placed around a proximal portion of the left anterior descending coronary artery to produce ischemia and reperfusion. At the end of the experiments, infarct size was determined-by histochemical staining (patent blue dye and triphenyltetrazolium) and expressed as a percentage of the region at risk or as a percentage of the entire left ventricle.\nIn the pretreatment protocol (see FIG. 1, protocol I), the dogs were subjected to 60 minutes of coronary artery occlusion and 3 hours or reperfusion after which the hearts were removed and infarct size was assessed. […] All of the antagonists were administered at a dose of 1 mg/kg as an i.v. bolus followed by and infusion of 10 μg/kg/min continued until immediately before reperfusion (70 minutes total)."}}, "data": [{"molecule": "CCCn1c(=O)c2[nH]c(C34CCC(CCC(=O)O)(CC3)CC4)nc2n(CCC)c1=O", "note": "[BG 9928, 3-[4-(2,6-dioxo-1,3-dipropyl-2,3,6,7-tetrahydro-1H-purin-8-yl)-bicyclo[2.2.2]oct-1-yl]-propionic acid]", "values": [{"measurement": "Kb", "setting": "[1]", "result": 3.36, "unit": "nM"}, {"measurement": "Ki", "setting": "[2]", "result": "88.5 ± 21", "unit": "nM"}, {"measurement": "Relationship between infarct size and transmural collateral blood flow compared to control group", "setting": "[3]", "result": "shifted downward"}, {"measurement": "Infarct size (percentage of risk region or of left ventricle) compared with control, in words", "setting": "[3]; 1 mg/kg i.v. bolus + 10 μg/kg/min from 10 minutes before occlusion, 1 mg/kg", "result": "significantly smaller"}, {"measurement": "Infarct size reduction", "setting": "[3]; 1 mg/kg i.v. bolus + 10 μg/kg/min from 10 minutes before occlusion, vs control", "result": 49, "unit": "%"}]}]}
